Source: patent US6468991B1, “Method of treating rhinoviral infections” (Cyclis Pharmaceuticals, Inc., priority 1997, dated 2002)
Read-outs that look alike come from different tables or passages of the source.

Assays:
[1] = test system: A-549 (human lung carcinoma) cells; experiment: Cytotoxicity by microscopic morphological changes in uninfected toxicity control wells
[2] = test system: Rhinovirus Type 2; experiment: Rhinovirus yield reduction assay; conditions: for ED50 (virus yield): second experiment
Experimental: After the second experiment, the microplate was frozen at −70° C., then thawed and the medium removed from the virus-infected wells and individually assayed for virus titer by adding 0.2 ml of serial 10-fold dilutions to a fresh monolayer of cells. The viral CPE, read 6 days later, was used as an infectivity endpoint.

[3] = test system: Rhinovirus (RV) type 2, strain GPH; experiment: Cytopathogenic effect (CPE) inhibition assay; conditions: for EC50: A549 cells
Experimental: Cells: A-549 (human lung carcinoma) cells were obtained from the American Type Culture Collection (ATCC, Rockville, Md.). They were grown in Dulbecco's Minimum Essential Medium (DMEM, Gibco, Gaithersburg, Md.) supplemented with 10% fetal bovine serum (FBS, HyClone Laboratories, Logan, Utah). When the cells were infected with virus, the test medium contained 2% FBS with 0.1% NaHCO3 and 50 μg gentamicin/ml.
Virus: Rhinovirus (RV) type 2, strain GPH was obtained from the ATCC. The virus was passed in cells and a pool prepared, ampuled, and frozen at −80° C. An aliquot of the frozen virus was titrated in A-549 cells prior to use in the following experiments.
A portion of the original solution was then diluted 1:3.95 in DMEM to provide a final concentration of 632 μM.
In both treatment methods, cells were plated in 96-well flat-bottomed tissue culture microplates (Corning Glass Works, Corning, N.Y.) at 5×10^4 cells/well in DMEM growth medium, and incubated overnight at 37° C. to establish cell monolayers in each well. […] Approximately 5-10 minutes later, four wells at each drug concentration were exposed to 0.1 ml of test medium with virus, with two additional wells exposed to 0.1 ml of sterile medium only, the latter to serve as toxicity controls. A group of 6 infected wells received no test compound to serve as virus controls, and 6 additional wells received sterile medium only as normal cell controls.
In the first treatment method, the test compound was added to the cells immediately prior to virus exposure and remained on the cells until viral cytopathogenic effect (CPE) was determined. In the second treatment method, fresh test compound (diluted in medium) was added to the cells daily, after removing the previous medium, until such time as the CPE was measured.
The CPE from each well was scored from 0 (normal cells) to 4 (maximal, 100%, CPE). Morphological changes due to cytotoxicity were determined microscopically; this was graded as T (100% toxicity characterized by complete cell sloughing from plate), PVH (80% cytotoxicity), PH (60% cytotoxicity), P (40% cytotoxicity), PSI (20% cytotoxicity) and 0 (normal cells). Fifty percent effective (virus-inhibitory) doses (ED50) and 50% cytotoxic doses (CD50) were calculated by regression analysis for the CPE inhibition experiment.

[4] = drug present without medium change

## 2′,3′-cyclophosphateadenylyl(2′,5′)adenylyl-(2′,5′)adenosine [Papirine AIII]
[1]; both experiments, A549 cells
  cytotoxicity observed: no cytotoxicity was observed
[2]; overall conclusion from CPE and virus yield results
  conclusion on inhibition of type 2 rhinovirus: significant inhibitor of type 2 rhinovirus
[2]; same whether compound left on the cells or freshly added daily
  ED90 concentration (virus yield): 8 µM
[2]; drug changed every 24 hours
  ED50 (virus yield): 8 µM
[2]; [4]
  ED50 (virus yield): 8 µM
[3]; both methods, both experiments, compared with ribavirin
  inhibition of viral CPE: significant inhibition of viral CPE was seen that exceeded the activity of the known positive inhibitor, ribavirin
[3]; read-out: ED50, Expt. 1, 5 days' incubation at 37° C., drug changed every 24 hours
  EC50: 24 µM
[3]; read-out: ED50, Expt. 1, 5 days' incubation at 37° C., drug present without medium change
  EC50: 25 µM
[3]; read-out: ED50, Expt. 2, 3 days' incubation at 37° C., drug changed every 24 hours
  EC50: 63 µM
[3]; read-out: ED50, Expt. 2, 3 days' incubation at 37° C., drug present without medium change
  EC50: 63 µM

## NC(=O)c1ncn([C@@H]2O[C@H](CO)[C@@H](O)[C@H]2O)n1 [Ribavirin]
[1]; Expt. 1, 5 days' incubation at 37° C., drug changed every 24 hours, A549 cells
  CD50: 2290 µM
[1]; Expt. 1, 5 days' incubation at 37° C., drug present without medium change, A549 cells
  CD50: 2290 µM
[1]; Expt. 2, 3 days' incubation at 37° C., drug changed every 24 hours, A549 cells
  CD50: 740 µM
[1]; Expt. 2, 3 days' incubation at 37° C., drug present without medium change, A549 cells
  CD50: 740 µM
[1]; Table 2, second experiment, drug changed every 24 hours
  CD50: 740 µM
[1]; Table 2, second experiment, drug present without medium change
  CD50: 740 µM
[2]; drug changed every 24 hours
  ED50 (virus yield): 102 µM
[2]; [4]
  ED50 (virus yield): 53 µM
[3]; Enterovirus, A549, 72 h, read-out: ED50, Expt. 2, 3 days' incubation at 37° C., drug present without medium change
  EC50: 410 µM
[3]; Enterovirus, A549, 120 h, read-out: ED50, Expt. 1, 5 days' incubation at 37° C., drug present without medium change
  EC50: 610 µM
[3]; Enterovirus, A549, read-out: ED50, Expt. 1, 5 days' incubation at 37° C., drug changed every 24 hours
  EC50: 1190 µM
[3]; Enterovirus, A549, read-out: ED50, Expt. 2, 3 days' incubation at 37° C., drug changed every 24 hours
  EC50: 186 µM
